From publication PMC10451377, “Rationally Designed Pyrimidine Compounds: Promising Novel Antibiotics for the Treatment of Staphylococcus aureus-Associated Bovine Mastitis” (Antibiotics, 2023)
Converted amounts (≈) assume the structure as drawn. Read-outs that look alike come from different tables or passages of the source. One block for each compound: values may come before it.

Legend:
Bovine S. aureus = test: Susceptibility of isolate panel (MIC50, MIC90, range); format: cell-based, Staphylococcus aureus
Text: (§1) Reference strains for this study (S. aureus ATCC 29213, ATCC 29740 [bovine mastitis strain Newbould], S. epidermidis ATCC 12228, E. coli ATCC 35695, E. faecalis ATCC 29212) were obtained from the American Type Culture Collection (ATCC, Rockville, MD). S. aureus strains CMRSA-10 and CMRSA-2 were obtained from the Laboratoire de santé publique du Québec (LSPQ, Sainte-Anne-de-Bellevue, QC, Canada) and are Canadian CA-MRSA USA-300 and HA-MRSA USA-100 clones, respectively. The strain E. coli imp4213 (lptD), used as a control in MIC assays, is a derivative of E. coli ATCC 35695 (E. coli MC4100) with an increased membrane permeability. […] Other MRSA strains used in this study are clinical isolates of human origin obtained from the microbiology laboratory of the Centre Hospitalier Universitaire de Sherbrooke (CHUS, Sherbrooke, QC, Canada). Bovine mastitis strains (S. aureus, S. chromogenes, S. haemolyticus, S. hominis, S. simulans) were obtained from the Canadian Bovine Mastitis and Milk Quality Research Network (CBRQMN, St-Hyacinthe, QC, Canada). Among these strains, S. aureus 2117 is a high producer of biofilm and was used in the biofilm-eradication assay. S. epidermidis isolates were provided by Centre de Recherche en Infectiologie (CRI) de Québec (Québec, QC, Canada).
(§2) The antibacterial activity of the most promising compound, PC206, was also evaluated against larger groups of clinical isolates of human and animal origin. The MIC50 and MIC90 values represented the concentrations of drug required to inhibit the growth of 50% and 90% of the bacterial strains tested, respectively.

MRSA = test: as above; format: cell-based, Staphylococcus aureus
Text: as §1, §2

S. haemolitycus = test: as above; format: cell-based, S. haemolyticus
Text: as §1, §2

S. chromogenes = test: as above; format: cell-based
Text: as §1, §2

S. epidermidis = test: as above; format: cell-based
Text: as §1, §2

S. hominis = test: as above; format: cell-based
Text: as §1, §2

S. simulans = test: as above; format: cell-based
Text: as §1, §2

[1] = system: Staphylococcus aureus CMRSA-10; test: Broth microdilution MIC; format: cell-based; settings: CMRSA10, read-out: Broth Microdilution MIC
Text: as §1

[2] = system: Staphylococcus aureus CMRSA-2; test: Broth microdilution MIC; format: cell-based; settings: CMRSA2, read-out: Broth Microdilution MIC
Text: as §1

[3] = system: Escherichia coli ΔlptD4213; test: microbe, parasite or virus in culture; format: cell-based; settings: read-out: Broth Microdilution MIC
Text: as §1

[4] = system: Bacillus subtilis xpt-lacZ; test: Broth microdilution MIC; format: cell-based; settings: read-out: Broth Microdilution MIC
[5] = system: S. aureus bovine strain 2117 embedded in preformed biofilm; test: Biofilm-eradication test (MBEC assay); format: cell-based, Staphylococcus aureus; settings: concentrations up to 512 µg/mL
Description: The viability of bacteria in preformed biofilms treated with PC206 was evaluated using the MBEC assay™ system (formerly the Calgary Biofilm Device). The device consists of a plastic lid with 96 pegs and a 96-well plate. […] Plates were incubated at 35 °C for 24 h with agitation (120 rpm). […] The pegs were washed three times with PBS and the biofilm was sonicated for 10 min, and then transferred into a new 96-well base plate. The 96-well plate was centrifuged for 5 min at 180 g to recover the detached bacteria.

[6] = system: Staphylococcus aureus ATCC 29213; test: Broth microdilution MIC; settings: ATCC29213, read-out: Broth Microdilution MIC
[7] = system: Staphylococcus epidermidis ATCC 12228; test: Broth microdilution MIC; settings: ATCC12228, read-out: Broth Microdilution MIC
[8] = system: Enterococcus faecalis ATCC 29212; test: Broth microdilution MIC; settings: ATCC29212, read-out: Broth Microdilution MIC
[9] = system: Escherichia coli ATCC 35695; test: Broth microdilution MIC; settings: ATCC35695, read-out: Broth Microdilution MIC

MIC50 (Bovine S. aureus; Bovine S. aureus, 48 isolates): 0.25 µg/mL (≈ 0.608 µM)
MIC90 (Bovine S. aureus; Bovine S. aureus, 48 isolates): 0.5 µg/mL (≈ 1.22 µM)
MIC Range (Bovine S. aureus; Bovine S. aureus, 48 isolates): 0.12 to 1 µg/mL
MIC50 (MRSA; 42 isolates): >64 µg/mL
MIC90 (MRSA; 42 isolates): >64 µg/mL
MIC50 (S. chromogenes; S. chromogenes, 5 isolates): 0.06 µg/mL (≈ 0.146 µM)
MIC90 (S. chromogenes; S. chromogenes, 5 isolates): 1 µg/mL (≈ 2.43 µM)
MIC Range (S. chromogenes; S. chromogenes, 5 isolates): 0.06 to 2 µg/mL
MIC50 (S. epidermidis; S. epidermidis, 10 isolates): 0.12 µg/mL (≈ 0.292 µM)
MIC90 (S. epidermidis; S. epidermidis, 10 isolates): >16 µg/mL
MIC50 (S. hominis; S. hominis, 10 isolates): 1 µg/mL (≈ 2.43 µM)
MIC90 (S. hominis; S. hominis, 10 isolates): >16 µg/mL
MIC50 (S. simulans; S. simulans, 5 isolates): 0.12 µg/mL (≈ 0.292 µM)
MIC90 (S. simulans; S. simulans, 5 isolates): 0.25 µg/mL (≈ 0.608 µM)
MIC Range (S. simulans; S. simulans, 5 isolates): 0.12 to 0.25 µg/mL
Compound: CC[C@@H]1CCN[C@H](C(=O)N[C@@H]([C@H]2O[C@H](SC)[C@H](O)[C@@H](O)[C@H]2O)[C@H](C)Cl)C1 [PIR, pirlimycin]
MIC50 (S. haemolitycus; S. haemolitycus, 10 isolates): 0.25 µg/mL (≈ 0.608 µM)
MIC90 (S. haemolitycus; S. haemolitycus, 10 isolates): >16 µg/mL

Compound: CN[C@H](CC(C)C)C(=O)N[C@H]1C(=O)N[C@@H](CC(N)=O)C(=O)N[C@H]2C(=O)N[C@H]3C(=O)N[C@H](C(=O)N[C@H](C(=O)O)c4cc(O)cc(O)c4-c4cc3ccc4O)[C@H](O)c3ccc(c(Cl)c3)Oc3cc2cc(c3O[C@@H]2O[C@H](CO)[C@@H](O)[C@H](O)[C@H]2O[C@H]2C[C@](C)(N)[C@H](O)[C@H](C)O2)Oc2ccc(cc2Cl)[C@H]1O [VAN, vancomycin]
MIC [1]: 1 µg/mL (≈ 0.69 µM)
MIC [2]: 1 µg/mL (≈ 0.69 µM)
MIC [3]: 1 µg/mL (≈ 0.69 µM)
MIC [4]: 0.25 µg/mL (≈ 0.173 µM)
MIC Range (Bovine S. aureus; Bovine S. aureus, 48 isolates): 0.25 to 1 µg/mL
MIC50 (Bovine S. aureus; Staphylococcus aureus): 0.5 µg/mL (≈ 0.345 µM)
MIC90 (Bovine S. aureus; Staphylococcus aureus): 0.5 µg/mL (≈ 0.345 µM)
MIC Range (MRSA; 42 isolates): 0.5 to 4 µg/mL
MIC50 (MRSA; Staphylococcus aureus): 1 µg/mL (≈ 0.69 µM)
MIC90 (MRSA; Staphylococcus aureus): 4 µg/mL (≈ 2.76 µM)
MIC Range (S. haemolitycus; S. haemolitycus, 10 isolates): 0.25 to 4 µg/mL
MIC50 (S. haemolitycus; Staphylococcus haemolyticus): 2 µg/mL (≈ 1.38 µM)
MIC90 (S. haemolitycus; Staphylococcus haemolyticus): 4 µg/mL (≈ 2.76 µM)
MIC50 (S. chromogenes): 0.5 µg/mL (≈ 0.345 µM)
MIC90 (S. chromogenes): 0.5 µg/mL (≈ 0.345 µM)
MIC Range (S. chromogenes; S. chromogenes, 5 isolates): 0.5 µg/mL (≈ 0.345 µM)
MIC Range (S. epidermidis; S. epidermidis, 10 isolates): 0.5 to 1 µg/mL
MIC50 (S. epidermidis; Staphylococcus epidermidis): 1 µg/mL (≈ 0.69 µM)
MIC90 (S. epidermidis; Staphylococcus epidermidis): 1 µg/mL (≈ 0.69 µM)
MIC Range (S. hominis; S. hominis, 10 isolates): 0.25 to 1 µg/mL
MIC50 (S. hominis; Staphylococcus hominis): 0.5 µg/mL (≈ 0.345 µM)
MIC90 (S. hominis; Staphylococcus hominis): 0.5 µg/mL (≈ 0.345 µM)
MIC Range (S. simulans; S. simulans, 5 isolates): 0.5 µg/mL (≈ 0.345 µM)
MIC50 (S. simulans; Staphylococcus simulans): 0.5 µg/mL (≈ 0.345 µM)
MIC90 (S. simulans; Staphylococcus simulans): 0.5 µg/mL (≈ 0.345 µM)
Effect on viable counts in preformed biofilm [5]: did not impact viable counts
MIC [6]: 0.5 µg/mL (≈ 0.345 µM)
MIC [7]: 1 µg/mL (≈ 0.69 µM)
MIC [8]: 4 µg/mL (≈ 2.76 µM)
MIC [9]: > 128 µg/mL
